Measurements: PubChem BioAssay (NCI)
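Tested at 5 concentrations; 48 h exposure; 96-well plates; endpoints linearly interpolated, else capped at highest concentration. GI50 = concentration required for 50% inhibition of growth. TGI: total growth inhibition.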

Legend:
Assay in all cases: growth of human tumour cells (NCI), 48 h
U251 CNS = tested on: U251 CNS
UACC-257 melanoma = tested on: UACC-257 melanoma
RXF 393 renal = tested on: RXF 393 renal
SR leukemia = tested on: SR leukemia
SNB-75 CNS = tested on: SNB-75 CNS
SW-620 colon = tested on: SW-620 colon
K-562 leukemia = tested on: K-562 leukemia
T-47D breast = tested on: T-47D breast
LOX IMVI melanoma = tested on: LOX IMVI melanoma
NCI-H23 lung = tested on: NCI-H23 lung

Nc1nccc2c1ncn2C1OC(CO)C(O)C1O (stereo not given)
GI50 (U251 CNS): > 100 µM | TGI (U251 CNS): > 100 µM | GI50 (UACC-257 melanoma): > 100 µM | TGI (UACC-257 melanoma): > 100 µM | GI50 (RXF 393 renal): 48.5 µM | TGI (RXF 393 renal): > 100 µM | GI50 (SR leukemia): 41.6 µM | TGI (SR leukemia): > 100 µM | GI50 (SNB-75 CNS): > 100 µM | TGI (SNB-75 CNS): > 100 µM | GI50 (SW-620 colon): 92.4 µM | TGI (SW-620 colon): > 100 µM | GI50 (K-562 leukemia): > 100 µM | TGI (K-562 leukemia): > 100 µM | GI50 (T-47D breast): > 100 µM | TGI (T-47D breast): > 100 µM | GI50 (LOX IMVI melanoma): 94.1 µM | TGI (LOX IMVI melanoma): > 100 µM | GI50 (NCI-H23 lung): > 100 µM | TGI (NCI-H23 lung): > 100 µM

CCC1(NC(=O)c2cc(F)c(F)c(F)c2F)C(=O)NC(=O)N(C(C)C)C1=O (stereo not given)
GI50 (U251 CNS): 25.6 µM | TGI (U251 CNS): 91.3 µM | GI50 (UACC-257 melanoma): 32.1 µM | TGI (UACC-257 melanoma): > 100 µM | GI50 (RXF 393 renal): 25.3 µM | TGI (RXF 393 renal): 59.1 µM | GI50 (SR leukemia): 2.98 µM | TGI (SR leukemia): 9.65 µM | GI50 (SNB-75 CNS): 21.3 µM | TGI (SNB-75 CNS): 45.9 µM | GI50 (SW-620 colon): 20.1 µM | TGI (SW-620 colon): 50.7 µM | GI50 (K-562 leukemia): 3.54 µM | TGI (K-562 leukemia): 19.3 µM | GI50 (T-47D breast): > 100 µM | TGI (T-47D breast): > 100 µM | GI50 (LOX IMVI melanoma): 16.7 µM | TGI (LOX IMVI melanoma): 54.5 µM | GI50 (NCI-H23 lung): 16.5 µM | TGI (NCI-H23 lung): 61.5 µM
